Literature values, collected in US8377904B2, “Composition and method for use in cartilage affecting conditions” (Hill's Pet Nutrition, Inc., priority 2004, dated 2013).

Test system: pain of osteoarthritis

## C[S+](CC[C@H](N)C(=O)[O-])C[C@H]1O[C@@H](n2cnc3c(N)ncnc32)[C@H](O)[C@@H]1O (some centres unmarked) [SAMe, S-adenosyl-L methionine]
Meta analysis
  Outcome compared with non-steroidal anti-inflammatory medication: not associated with statistically significant difference in outcomes
One randomized clinical trial
  effective size in favor of SAMe compared to a placebo: 0.20
